Experimental data: patent publication EP0300812A2, “Platinum triamine antitumor agents containing saturated amines” (ENGELHARD CORPORATION, priority 1987, dated 1989)
Where “and” joins values, the source holds several entries; their conditions need not be identical. Equal entries are not always repeated.

Columns and labels:
[1] = test system: Sarcoma 180 ascites; assay: Sarcoma 180 ascites antitumor screening; assay type: in vivo, Female CFW mice; conditions: for %ILS: ILS ≧ 50% indicates activity; for Surv.: survivors per 6 mice at twice the MST of controls
Description: (§1) Each compound was evaluated in at least one of these screens.
Female CFW mice (18 - 25 g) were implanted with 2 x 10⁶ cells ip on day zero. Compounds were administered in 0.5 mL water ip on day one. Groups of 6 mice were used for each test dose as well as controls as defined above. The test was run for twice the MST of the control group, with survivors counted as dying on that day. An ILS of ≧ 50% indicates activity. The tumor line was maintained through weekly transfer of 4 x 10⁶ cells in CFW mice.

[2] = test system: L1210 Leukemia; assay: L1210 leukemia antitumor screening; assay type: in vivo, Female CDF₁ mice; conditions: for %ILS: ILS ≧ 25% represents activity; for Surv.: survivors per 6 mice at three times the MST of controls
Description: as §1
L1210 screening was conducted according to a published method. See Rose, W.C.; Schurig, J.F.; Huftalen, J.B.; Bradner, W.T. Cancer Treat. Rep. […] Female CDF₁ mice (16 - 22 g) were implanted with 1 x 10⁶ tumor cells ip on day zero. Compounds were administered in 0.5 mL water ip on day one. Groups of 6 mice were used for each dose. A control group received only tumor and 0.5 mL water. A positive control group received tumor and 8 mg/kg cisplatin in 0.5 mL of 0.15 M NaCl. The test was terminated after three times the mean survival time (MST) of the control group, surviving mice were counted as dying on that day. Activity was determined based on the percent increase in MST of test mice over controls (%ILS). […] The tumor line was maintained through weekly transfer of 5 x 10⁴ cells in DBA/2 mice.

[3] = S180a, dose 10 mg/kg ip in water on day one
[4] = S180a, dose 20 mg/kg ip in water on day one
[5] = S180a, dose 40 mg/kg ip in water on day one
[6] = S180a, dose 80 mg/kg ip in water on day one
[7] = S180a, dose 160 mg/kg ip in water on day one
[8] = S180a, dose 320 mg/kg ip in water on day one

Compound | %ILS [1, 3] | Surv. ([1]; S180a, dose 10 mg/kg ip) | %ILS [1, 4] | Surv. ([1]; S180a, dose 20 mg/kg ip) | %ILS [1, 5] | Surv. ([1]; S180a, dose 40 mg/kg ip) | %ILS [1, 6] | Surv. ([1]; S180a, dose 80 mg/kg ip) | %ILS [1, 7] | Surv. ([1]; S180a, dose 160 mg/kg ip) | %ILS [1, 8] | Surv. ([1]; S180a, dose 320 mg/kg ip) | further results
CCCCCCCC[NH2+][Pt-2]([NH3+])([NH3+])[Cl].O=[N+]([O-])[O-] [cis-[Pt(NH3)2(octylamine)Cl]NO3, cis-[Pt(NH₃)₂(octylamine)Cl]NO₃] | 16% | 0/6 | 25% | 0/6 | 22% | 0/6 | -78% | 0/6 | -78% | 0/6 | -95% | 0/6 | activity in the S-180 ascites screen ([1]; statement in words): substantially no activity
cis-[Pt(NH₃)₂Cl₂] [Positive Control, reference compound] |  |  |  |  |  |  |  |  |  |  |  |  | Positive Control %ILS ([1]; S180a, positive control 8 mg/kg cisplatin in 0.15 M NaCl ip): 65% and 80%; Positive Control Surv. ([1]; S180a, positive control 8 mg/kg cisplatin in 0.15 M NaCl ip, survivors per 6 mice): 1/6 and 3/6; Positive Control %ILS ([2]; L1210, positive control 8 mg/kg cisplatin in 0.15 M NaCl ip): 149%; Positive Control Surv. ([2]; L1210, positive control 8 mg/kg cisplatin in 0.15 M NaCl ip, survivors per 6 mice): 2/6
O=[N+]([O-])[O-].[NH3+][Pt-2]([NH3+])([Cl])[NH2+]CC1CCCCC1 (stereo not drawn) [cis-[Pt(NH₃)₂(cyclohexanemethylamine)Cl]NO₃] | 15% | 0/6 | 22% | 0/6 | 19% | 1/6 | 61% | 0/6 | -78% | 0/6 | -94% | 0/6 | 
CC1CCNCC1.N.N.O=[N+]([O-])[O-].[Cl-].[Pt+2] [cis-[Pt(NH3)2(4-methylpiperidine)Cl]NO3, cis-[Pt(NH₃)₂(4-methylpiperidine)Cl]NO₃] | 4% | 0/6 | 13% | 0/6 | 18% | 0/6 | 76% | 1/6 | 4% | 1/6 | -80% | 0/6 | %ILS ([2]; L1210, dose 10 mg/kg ip in water on day one): 24%; Surv. ([2]; L1210, dose 10 mg/kg ip): 0/6; %ILS ([2]; L1210, dose 20 mg/kg ip in water on day one): 17%; Surv. ([2]; L1210, dose 20 mg/kg ip): 0/6; %ILS ([2]; L1210, dose 40 mg/kg ip in water on day one): 60%; Surv. ([2]; L1210, dose 40 mg/kg ip): 0/6; %ILS ([2]; L1210, dose 80 mg/kg ip in water on day one): 57%; Surv. ([2]; L1210, dose 80 mg/kg ip): 0/6; %ILS ([2]; L1210, dose 160 mg/kg ip in water on day one): -28%; Surv. ([2]; L1210, dose 160 mg/kg ip): 0/6; %ILS ([2]; L1210, dose 320 mg/kg ip in water on day one): -68%; Surv. ([2]; L1210, dose 320 mg/kg ip): 0/6
